In US12233032B2, “Compositions for management of polycystic ovary syndrome” (Sami-Sabinsa Group Limited, priority 2021, dated 2025):
Marks after values point to notes of the source that are not given here.

Experiments:
Type in all cases: in vivo
[1] = test system: PCOS induced by letrozole in female Wistar rats; assay: Body weight in letrozole-induced PCOS
Description: (§1) Animals and Experimental design: Animals were housed under standard air-conditioned laboratory conditions. The temperature was maintained at maximum: 24° C. and a minimum of 23° C. and Relative humidity at maximum: 63% and a minimum of 48% with 12 h light and 12 h dark cycle. The maximum and minimum temperature and relative humidity in the experimental room were recorded once daily. Female virgin Wistar rats (150-200 g) was checked daily for 4-day ovarian cycle using vaginal cytology. PCOS was induced by oral administration of aromatase inhibitor, letrozole (1 mg/kg) dissolved in 0.5% CMC (2 mg/kg) for 21 days. During the experiment, the estrous cycle was monitored by the analyses of relative proportion of leukocytes, epithelial and cornified cells in vaginal smears. Following letrozole administration, test samples were administered to animals from day 22 to day 36. After treatment protocol, animal from all groups (Table 1) were fasted overnight and anesthetized with diethylether/halothane. The blood was collected by retino-orbital puncture, then serum was separated by centrifugation followed by estimation of hormones and other biochemical parameters using commercially available ELISA kits. The serum hormone levels, body weight and ovary weigh of the animals were assessed to ascertain the effective dose.

[2] = test system: PCOS induced by letrozole in female Wistar rats; assay: Ovarian weight in letrozole-induced PCOS; conditions: day 22 to day 36
Description: as §1

[3] = test system: PCOS induced by letrozole in female Wistar rats; assay: Serum hormonal levels (17-β estradiol, progesterone, FSH, LH) in letrozole-induced PCOS; conditions: day 22 to day 36
Description: as §1

[4] = test system: PCOS induced by letrozole in female Wistar rats; assay: Thyroid function analysis (serum T3, T4, TSH) in PCOS
Description: Animals and Experimental design: Animals were housed under standard air-conditioned laboratory conditions. The temperature was maintained at maximum: 24° C. and a minimum of 23° C. and Relative humidity at maximum: 63% and a minimum of 48% with 12 h light and 12 h dark cycle. The maximum and minimum temperature and relative humidity in the experimental room were recorded once daily. Female virgin Wistar rats (150-200 g) was checked daily for 4-day ovarian cycle using vaginal cytology. PCOS was induced by oral administration of aromatase inhibitor, letrozole (1 mg/kg) dissolved in 0.5% CMC (2 mg/kg) for 21 days. During the experiment, the estrous cycle was monitored by the analyses of relative proportion of leukocytes, epithelial and cornified cells in vaginal smears.
Following letrozole administration, test samples were administered to animals from day 22 to day 36. After treatment protocol, animal from all groups (Table 1) were fasted overnight and anesthetized with diethylether/halothane. The blood was collected by retino-orbital puncture, then serum was separated by centrifugation followed by estimation of hormones and other biochemical parameters using commercially available ELISA kits.
Based on the above results, the following groups were taken for further analysis BDMC 25 mg/kg p.o. • BDMC 50 mg/kg p.o. • AC3 100 mg/kg p.o. • AC3 200 mg/kg p.o.
The following molecular targets were assessed: • 1. Thyroid Function analysis • 2. Effect on androgen profile • 3. Effect on serum adiponectin levels • 4. Insulin resistance • 5. Effect on Serum Paraoxonase 1 Activity • 6. Effect of gut microbiota • 7. Oxidative stress and inflammatory markers Thyroid Function Analysis

Q: Which results are given for `O=C(/C=C/c1ccc(O)cc1)CC(=O)/C=C/c1ccc(O)cc1` [BDMC, bisdemethoxycurcumin]?
A: Average body weight ([1]; 3.12 mg/kg from day 22, Day 28 (PCOS + Treatment)): 202 ± 4.15 g; Average body weight ([1]; 3.12 mg/kg from day 22, Day 36 (PCOS + Treatment)): 200 ± 6.36 g; Average body weight ([1]; 3.12 mg/kg group, Day 1 (PCOS induction, before treatment)): 158 ± 6.16 g; Average body weight ([1]; 3.12 mg/kg group, Day 7 (PCOS induction, before treatment)): 175 ± 5.27 g; Average body weight ([1]; 3.12 mg/kg group, Day 14 (PCOS induction, before treatment)): 194 ± 5.77 g; Average body weight ([1]; 3.12 mg/kg group, Day 21 (PCOS induction, before treatment)): 210 ± 7.58 g; Average body weight ([1]; 6.25 mg/kg from day 22, Day 28 (PCOS + Treatment)): 201 ± 6.88 g; Average body weight ([1]; 6.25 mg/kg from day 22, Day 36 (PCOS + Treatment)): 198 ± 6.45 g; Average body weight ([1]; 6.25 mg/kg group, Day 1 (PCOS induction, before treatment)): 157 ± 8.15 g; Average body weight ([1]; 6.25 mg/kg group, Day 7 (PCOS induction, before treatment)): 175.3 ± 4.5 g; Average body weight ([1]; 6.25 mg/kg group, Day 14 (PCOS induction, before treatment)): 195.5 ± 6.6 g; Average body weight ([1]; 6.25 mg/kg group, Day 21 (PCOS induction, before treatment)): 215 ± 5.78 g; Average body weight ([1]; 12.5 mg/kg from day 22, Day 28 (PCOS + Treatment)): 200 ± 6.57 g; Average body weight ([1]; 12.5 mg/kg from day 22, Day 36 (PCOS + Treatment)): 196 ± 5.26 g; Average body weight ([1]; 12.5 mg/kg group, Day 1 (PCOS induction, before treatment)): 158 ± 7.88 g; Average body weight ([1]; 12.5 mg/kg group, Day 7 (PCOS induction, before treatment)): 174 ± 2.83 g; Average body weight ([1]; 12.5 mg/kg group, Day 14 (PCOS induction, before treatment)): 202.5 ± 8.12^ g; Average body weight ([1]; 12.5 mg/kg group, Day 21 (PCOS induction, before treatment)): 212 ± 6.36 g; Average body weight ([1]; 25 mg/kg from day 22, Day 28 (PCOS + Treatment)): 201 ± 5.54 g; Average body weight ([1]; 25 mg/kg from day 22, Day 36 (PCOS + Treatment)): 191 ± 5.84 g; Average body weight ([1]; 25 mg/kg group, Day 1 (PCOS induction, before treatment)): 157.5 ± 8.16^ g; Average body weight ([1]; 25 mg/kg group, Day 7 (PCOS induction, before treatment)): 172 ± 6.46 g; Average body weight ([1]; 25 mg/kg group, Day 14 (PCOS induction, before treatment)): 190.5 ± 4.44^ g; Average body weight ([1]; 25 mg/kg group, Day 21 (PCOS induction, before treatment)): 210 ± 5.12 g; Average body weight ([1]; 50 mg/kg from day 22, Day 28 (PCOS + Treatment)): 199 ± 8.15 g; Average body weight ([1]; 50 mg/kg from day 22, Day 36 (PCOS + Treatment)): 192 ± 6.36 g; Average body weight ([1]; 50 mg/kg group, Day 1 (PCOS induction, before treatment)): 157 ± 6.13 g; Average body weight ([1]; 50 mg/kg group, Day 7 (PCOS induction, before treatment)): 168 ± 5.47 g; Average body weight ([1]; 50 mg/kg group, Day 14 (PCOS induction, before treatment)): 190 ± 10.42 g; Average body weight ([1]; 50 mg/kg group, Day 21 (PCOS induction, before treatment)): 211 ± 7.58 g; Ovarian weight ([2]; 3.12 mg/kg): 63.88 ± 2.19 mg; Ovarian weight ([2]; 6.25 mg/kg): 59.64 ± 2.32 mg; Ovarian weight ([2]; 12.5 mg/kg): 54.36 ± 2.80 mg; Ovarian weight ([2]; 25 mg/kg): 47.88 ± 2.76 mg; Ovarian weight ([2]; 50 mg/kg): 48.54 ± 2.42 mg; Serum hormonal levels 17-β estradiol ([3]; 3.12 mg/kg): 16.89 ± 3.01 pg/mL; Serum hormonal levels FSH ([3]; 3.12 mg/kg): 10.54 ± 1.44 mIU/mL; Serum hormonal levels LH ([3]; 3.12 mg/kg): 26.33 ± 3.02 mIU/mL; Serum hormonal levels Progesterone ([3]; 3.12 mg/kg): 18.67 ± 1.03 ng/mL; Serum hormonal levels 17-β estradiol ([3]; 6.25 mg/kg): 18.22 ± 2.44 pg/mL; Serum hormonal levels FSH ([3]; 6.25 mg/kg): 10.98 ± 1.52 mIU/mL; Serum hormonal levels LH ([3]; 6.25 mg/kg): 27.32 ± 2.30 mIU/mL; Serum hormonal levels Progesterone ([3]; 6.25 mg/kg): 20.56 ± 1.09 ng/mL; Serum hormonal levels 17-β estradiol ([3]; 12.5 mg/kg): 18.89 ± 1.65 pg/mL; Serum hormonal levels FSH ([3]; 12.5 mg/kg): 12.58 ± 1.08 mIU/mL; Serum hormonal levels LH ([3]; 12.5 mg/kg): 24.36 ± 2.11 mIU/mL; Serum hormonal levels Progesterone ([3]; 12.5 mg/kg): 23.50 ± 2.21 ng/mL; Serum hormonal levels 17-β estradiol ([3]; 25 mg/kg): 22.50 ± 1.67 pg/mL; Serum hormonal levels FSH ([3]; 25 mg/kg): 13.28 ± 1.34 mIU/mL; Serum hormonal levels LH ([3]; 25 mg/kg): 21.54 ± 1.26 mIU/mL; Serum hormonal levels Progesterone ([3]; 25 mg/kg): 26.95 ± 1.53 ng/mL; Serum hormonal levels 17-β estradiol ([3]; 50 mg/kg): 21.26 ± 2.32 pg/mL; Serum hormonal levels FSH ([3]; 50 mg/kg): 13.07 ± 1.36 mIU/mL; Serum hormonal levels LH ([3]; 50 mg/kg): 22.78 ± 1.76 mIU/mL; Serum hormonal levels Progesterone ([3]; 50 mg/kg): 26.28 ± 1.22 ng/mL; Serum hormonal levels T3 ([4]; 25 mg/kg p.o.): 3.3 ± 0.18 μIU/ml; Serum hormonal levels T4 ([4]; 25 mg/kg p.o.): 11.78 ± 0.39 μIU/ml; Serum hormonal levels TSH ([4]; 25 mg/kg p.o.): 5.28** nmol/L; Serum hormonal levels T3 ([4]; 50 mg/kg p.o.): 3.05 ± 0.17 μIU/ml; Serum hormonal levels T4 ([4]; 50 mg/kg p.o.): 10.45 ± 0.27 μIU/ml; Serum hormonal levels TSH ([4]; 50 mg/kg p.o.): 7.12** nmol/L
